What all share (assay type): physicochemical
A short description of data set [1]: VTI moisture adsorption/desorption (hygroscopicity). The following applies: for Hygroscopicity (by weight) at 90% relative humidity at ambient temperature / Hygroscopic moisture gain / weight gain at 90% RH (VTI): 90% RH; for Hygroscopic moisture gain / weight gain at 90% RH (VTI): flow-through VTI, 25 C; for Hygroscopicity assessment in words: VTI, up to 90% RH. The text has this:
The salts and solvates of the present invention can be further characterized by VTI water vapor adsorption to measure hygroscopicity. […] Other methods of analysis are described in more detail in the Examples.
This monobesylate salt of Formula I appeared as fine crystalline particles of moderate to high birefringence with irregularly-shaped morphology. The size of the particles ranged from approximately […] to 50 mm in diameter, with some aggregates up to about 200 mm in diameter. The material was tested using DSC at a heating rate of five degrees/minute, FIG. 1(b). A sharp melting endotherm with onset temperature of 254° C. was observed. Minor front tailing for the endotherm was also noted. The material was tested by TGA at a heating rate of five degrees/minute, FIG. 1(c). No loss in weight was observed up to the melting onset temperature (˜250)° C. […] These solvents were thus likely entrained by the crystal and were not released until melting. […] The dynamic moisture sorption was evaluated using a flow-through VTI apparatus at 25° C. The sample was initially dried at ˜2% RH for maximum of two hours, followed by a moisture adsorption ramp from 10% RH to 90%, then a desorption ramp back down to 10% RH. Initial drying removed 0.08% by weight, followed by a maximum moisture gain of 0.09% at 90% RH. Thus, this complex was non-hygroscopic.
The sample was tested in flow-through VTI with relative humidity ramp from 0 to 90%, then a desorption ramp back down to 10%1 RH at 25 C. […] The monomesylate was analyzed for elemental composition of carbon, hydrogen, nitrogen, fluorine and sulfur. The results from analysis met the stoichiometry of a mono-mesylate salt containing 1% THF.
The hemihydrate tosylate salt of Formula I consisted of fine birefringent aggregated needles and lathes. This sample was crystalline by PXRD. The thermal profile of this sample was obtained by heating from 30-300 C at 5 C/min. […] The volatile content of this sample was obtained by heating from 30-225 C at 5 C/min. The total volatile content was 1.4%, and consisted of water and ethanol by IR. The sample was tested in flow-through VTI with relative humidity ramp from 0 to 90% at 25 C.

Data set [2] is described as follows: Solid-state stability at 70 C/75% RH. As to the method:
The monobesylate salt of Formula I (m. wt. 665.67), Form A, was a white crystalline solid with irregularly-shaped particle morphology ranging from approximately […] in diameter. This anhydrous form melted (DSC, Tonset) at 254° C. with decomposition.

A short description of data set [3]: Solubility in aqueous media and organic solvents. From the text:
(§1) Solubility increased in acidic media, with a solubility of 1 mgA/ml observed in pH 2 buffer. […] Solubility determined in several common organic solvents, such as ethanol and acetone, was about 200 mgA/ml. The following table summarizes the physical and chemical properties of the monobesylate salt of Formula I: […]

Data set [4] in a line: pKa in solution. The conditions noted are these: weak base.
Source text: as §1

[5] abbreviates: listed as monobesylate salt of Formula I.

We go through six molecules from patent US8722884B2, “Pyrimidine derivatives for the treatment of abnormal cell growth” (Verastem, Inc., priority 2005, dated 2014).

In general, solubility refers to the concentration that dissolves in the medium under given conditions. Usually pKa stands for the negative logarithm of the acid dissociation constant. Lower therefore signals a group that gives up its proton readily.

Structures are written as SMILES. In brackets after ≈: the same amount, converted by molar mass. Where two headings read alike, the source gives them in different places.

`CN(c1ncccc1CNc1nc(Nc2ccc3c(c2)CC(=O)N3)ncc1C(F)(F)F)S(C)(=O)=O` [Example 2, N-Methyl-N-(3-{[2-(2-oxo-2,3-dihydro-1H-indol-5-ylamino)-5-trifluoromethyl-pyrimidin-4-ylamino]-methyl}-pyridin-2-yl)-methanesulfonamide]: the “Hygroscopicity (by weight) at 90% relative humidity at ambient temperature” value in data set [1] turned out to be 0.16%. The “Hygroscopic moisture gain / weight gain at 90% RH (VTI)” value in data set [1] (listed as besylate salt of Formula I) was determined as 0.16%.

As to `CN(c1ncccc1CNc1nc(Nc2ccc3c(c2)CC(=O)N3)ncc1C(F)(F)F)S(C)(=O)=O` [Example 3, N-Methyl-N-(3-{[2-(2-oxo-2,3-dihydro-1H-indol-5-ylamino)-5-trifluoromethyl-pyrimidin-4-ylamino]-methyl}-pyridin-2-yl)-methanesulfonamide], the “Hygroscopicity (by weight) at 90% relative humidity at ambient temperature” value in data set [1] was found to be 1.4%. For the same molecule, in data set [1] (listed as monomesylate), the “Hygroscopicity assessment in words” value is given as “kinetically non-hygroscopic” and the “Hygroscopic moisture gain / weight gain at 90% RH (VTI)” value is 1.4%.

As to `CN(c1ncccc1CNc1nc(Nc2ccc3c(c2)CC(=O)N3)ncc1C(F)(F)F)S(C)(=O)=O` [Example 1, N-Methyl-N-(3-{[2-(2-oxo-2,3-dihydro-1H-indol-5-ylamino)-5-trifluoromethyl-pyrimidin-4-ylamino]-methyl}-pyridin-2-yl)-methanesulfonamide], the “Hygroscopicity assessment in words” value in data set [1] (setting [5]) was “non-hygroscopic”. In addition, the “Hygroscopic moisture gain / weight gain at 90% RH (VTI)” value in data set [1] (setting [5]) is listed as 0.09%. For the same molecule, in data set [2] (3 weeks, 70 C/75% RH), the “Solid-state stability, 3 weeks at 70 C./75% RH (purity by HPLC area % relative to room temperature control)” value is >99.9% (purity by HPLC. For the same molecule, the “Solid-state stability in words” value in data set [2] (three weeks exposure to 70 C/75% RH) is “chemically and physically stable in the solid-state”. Also, the Acetone solubility in data set [3] (acetone) is listed as 206 ugA/ml. Besides, the “Aqueous buffer pH 1.4 solubility” value in data set [3] (aqueous buffer pH 1.4) came out at 1162 ugA/ml. Moreover, in data set [3] (aqueous buffer pH 7), the “Aqueous buffer pH 7 solubility” value was 4 ugA/ml. Moreover, the solubility in data set [3] (aqueous buffer, heading: Solubility in unbuffered water, unbuffered water, pH 2.65) was 369 µg/mL (≈ 727 µM); in data set [3] (aqueous buffer, pH 2 buffer, read-out: Solubility in pH 2 buffer), 1000 µg/mL (≈ 1970 µM); in data set [3] (aqueous media, water, aqueous, above pH 5, read-out: Aqueous solubility above pH 5), approximately 5000 µg/mL (≈ 9850 µM). In data set [3] (ethanol), this molecule had an Ethanol solubility of 260 ugA/ml. Besides, the “Solubility in common organic solvents, such as ethanol and acetone” value in data set [3] (organic solvents) is on record as “about 200 mgA/ml”. Moreover, in data set [3] (unbuffered water, pH 2.65 (table)), the “Unbuffered water solubility (pH 2.65)” value turned out to be 369 ugA/ml. Further, the pKa in data set [4] was 4.58.

Turning to `CN(c1ncccc1CNc1nc(Nc2ccc3c(c2)CC(=O)N3)ncc1C(F)(F)F)S(C)(=O)=O` [Example 6, N-Methyl-N-(3-{[2-(2-oxo-2,3-dihydro-1H-indol-5-ylamino)-5-trifluoromethyl-pyrimidin-4-ylamino]-methyl}-pyridin-2-yl)-methanesulfonamide], the “Hygroscopicity (by weight) at 90% relative humidity at ambient temperature” value in data set [1] is recorded as 1.4%.

For `CN(c1ncccc1CNc1nc(Nc2ccc3c(c2)CC(=O)N3)ncc1C(F)(F)F)S(C)(=O)=O` [Example 5, N-Methyl-N-(3-{[2-(2-oxo-2,3-dihydro-1H-indol-5-ylamino)-5-trifluoromethyl-pyrimidin-4-ylamino]-methyl}-pyridin-2-yl)-methanesulfonamide], the “Hygroscopicity (by weight) at 90% relative humidity at ambient temperature” value in data set [1] amounted to 2.7%.

As to `CN(c1ncccc1CNc1nc(Nc2ccc3c(c2)CC(=O)N3)ncc1C(F)(F)F)S(C)(=O)=O` [Example 4, N-Methyl-N-(3-{[2-(2-oxo-2,3-dihydro-1H-indol-5-ylamino)-5-trifluoromethyl-pyrimidin-4-ylamino]-methyl}-pyridin-2-yl)-methanesulfonamide], the “Hygroscopicity (by weight) at 90% relative humidity at ambient temperature” value in data set [1] came to 0.6%. Further, the “Hygroscopic moisture gain / weight gain at 90% RH (VTI)” value in data set [1] (listed as tosylate salt of Formula I) was determined as 0.6%.
